Laboratory results as given in patent US20260174778A1, “SULFONAMIDE COMPOUND, AND PREPARATION METHOD THEREFOR AND USE THEREOF” (SHANGHAI HENLIUS BIOTECH, INC., priority 2023, published 2026).

Test system: human breast cancer ZR-75-1 cell xenograft tumor
Assay: Anti-tumor effect in ER+KAT6high breast cancer cell xenograft tumor model (Test Example 6)
Assay type: in vivo, Balb/c nude mice
Conditions: for T/C / TGI / mean tumor volume: day 34; for efficacy compared to PF-8144: 0.1 mg/kg and 0.3 mg/kg PO QD; for body weight changes compared to the PF-8144 group: all doses (0.1, 0.3 mg/kg)
Experimental: Test Example 6: Anti-Tumor Effects of Test Compounds in ER^+KAT6^high Breast Cancer Cell-Xenograft Tumor Model
Assay method: ZR-75-1 cells were subcutaneously inoculated into the right back of each mouse to evaluate the efficacy of the compounds in the subcutaneous xenograft tumor model of ZR-75-1 cells.
• 1. Cell culture: ZR-75-1 cells were cultured as a monolayer in vitro under the following culture conditions: an RPMI 1640 medium supplemented with 10% fetal bovine serum and 1% Anti-anti (Antibiotic-Antimycotic), incubated in an incubator at 37° C. with 5% CO2. The cells were digested with trypsin-EDTA twice a week for passaging as per conventional practice. When the cell saturation reached 80%-90% and the quantity met the requirement, the cells were harvested, counted, and inoculated. • 2. Animals: Balb/c nude mice, female, 6-8 weeks old, weighing 18-22 g. A total of 115 mice were required (72 mice were enrolled). They were provided by Vital River or other qualified suppliers. • 3. Tumor inoculation: Two days before tumor inoculation, 17-beta estradiol tablets (0.18 mg) were subcutaneously administered, and 10 million ZR-75-1 tumor cells+matrigel (total […]) were subcutaneously inoculated into the right back of each mouse. When the mean tumor volume reached about 131 mm^3, the mice were grouped for administration. • 4. Experimental administration: The compounds were dissolved in 5% DMSO+5% Tween 80+90% Saline or 10% DMSO+10% Solutol+80% (10% HPP-CD in saline), and administered intragastrically (PO) daily for five weeks. • 5. Experimental indicators: The experimental indicators were to investigate whether the tumor growth was inhibited or delayed or the tumor was cured. Tumor diameters were measured twice weekly using a vernier caliper. The tumor volume was calculated using the following formula: V=0.5a×b^2, where a and b represent the long diameter and short diameter of the tumor, respectively. • 6. The anti-tumor efficacy of the compounds was evaluated by TGI (%) or relative tumor proliferation rate T/C (%). TGI (%) refers to the tumor growth inhibition rate. Calculation of TGI (%):TGI (%)=[(1−(mean tumor volume at the end of administration in a treatment group—mean tumor volume at the start of administration in the treatment group))/(mean tumor volume at the end of treatment in the solvent control group—mean tumor volume at the start of treatment in the solvent control group)]×100%. The calculation formula for the relative tumor proliferation rate T/C (%) was as follows: T/C %=TRTV/CRTV×100% (TRTV:RTV of the treatment group; CRTV:RTV of the negative control group). The relative tumor volume (RTV) was calculated based on the tumor measurement results using the following formula: RTV=Vt/V0, where V0 represents the mean tumor volume measured at the time of grouping for administration (i.e., PG-DO), and Vt represents the mean tumor volume at a certain measurement. TRTV and CRTV were derived from data measured on the same day.
The mean and standard error of mean (SEM) of tumor volume at each time point for each group were included. The differences in tumor volume and tumor weight among the groups were statistically analyzed. For comparisons among three or more groups, one-way ANOVA was used for analysis. […] The analysis was performed using SPSS 17.0, and p<0.05 was considered to indicate a significant difference.
For comparisons between different doses of the same drug or different drugs at the same dose, two-way ANOVA was used for analysis, and the Bonferroni method was applied for testing. The analysis was performed using GraphPad Prism 9.0, and p<0.05 was considered to indicate a significant difference. On day 34 after the start of administration, the data between different doses of the same drug or different drugs at the same dose were analyzed using one-way ANOVA. […] The analysis was performed using SPSS 17.0, and p<0.05 was considered to indicate a significant difference.

Row | Structure (SMILES) | T/C (0.1 mg/kg PO QD) [%] | TGI (0.1 mg/kg PO QD) [%] | mean tumor volume (0.1 mg/kg PO QD) [mm^3] | efficacy compared to PF-8144 | T/C (0.3 mg/kg PO QD) [%] | TGI (0.3 mg/kg PO QD) [%] | mean tumor volume (0.3 mg/kg PO QD) [mm^3] | body weight changes compared to the PF-8144 group
1 | COc1ccc2c(c1S(=O)(=O)Nc1noc3cc(Cn4cccn4)c(F)c(OC)c13)OCCC2=O [Compound 42, N-(6-((1H-Pyrazol-1-yl)methyl)-5-fluoro-4-methoxybenzo[d]isoxazol-3-yl)-7-methoxy-4-oxochromane-8-sulfonamide] | 3.9 | 108.67 | 44 | significantly superior in efficacy to PF-8144 | 2.2 | 110.58 | 25 | no statistically significant difference
2 | COc1ccc2c(c1S(=O)(=O)Nc1noc3cc(Cn4cccn4)c(F)c(OC)c13)OCCCO2 [Compound 114, N-(6-((1H-Pyrazol-1-yl)methyl)-5-fluoro-4-methoxybenzo[d]isoxazol-3-yl)-7-methoxy-3,4-dihydro-2H-benzo[b][1,4]dioxepine-6-sulfonamide] | 35.8 | 72.61 | 403 | – | 10.5 | 101.21 | 119 | no statistically significant difference
3 | COc1ccc2c(c1S(=O)(=O)Nc1noc3cc(Cn4cccn4)c(F)c(OC)c13)OCCCN2C [Compound 115, N-(6-((1H-Pyrazol-1-yl)methyl)-5-fluoro-4-methoxybenzo[d]isoxazol-3-yl)-8-methoxy-5-methyl-2,3,4,5-tetrahydrobenzo[b][1,4]oxazepine-9-sulfonamide] | 8.6 | 103.38 | 97 | significantly superior in efficacy to PF-8144 | 2.4 | 110.47 | 27 | no statistically significant difference
4 | COc1ccccc1S(=O)(=O)Nc1noc2cc(Cn3cccn3)cc(OC)c12 [PF-8144, reference compound] | 36.2 | 72.2 | 407 | – | 19.5 | 91.07 | 220 | –
